Reference: patent US11497738B2, “Di-substituted pyrazole compounds for the treatment of diseases” (FGH BIOTECH, INC., priority 2016, dated 2022)

Test system: SCD1 expression
Assay: Inhibition assay: qPCR of SCD1 expression in HepG2 cells (Biological Example 1)
Assay type: cell-based
Details: Homo sapiens, 24 hours; for inhibition at 1 µM: read-out: Inhibition Percentage (%) 1 μM (SCD1 expression); for inhibition at 10 µM: read-out: Inhibition Percentage (%) 10 μM (SCD1 expression)
Method: HepG2 cells were grown in Dulbecco's Modified Eagle Medium (DMEM) containing 5% FBS and antibiotic-antimycotic in a humidified incubator at 37° C. with 5% CO2. All three components were purchased from ThermoFisher Scientific (Catalog numbers are 11995073, 26140079, and 15240062, respectively). Treatments were done in duplicates for each dose of each compound. For control and treated each treatment, 400,000 HepG2 cells were seeded onto 1 well of 24-well plate. After one day in culture, cells were treated with the test compound (1 μM and/or 10 μM, as indicated below in Table 1) for 24 hours in DMEM with 5% FBS. Compounds were diluted using DMSO from 20 mM stocks. Total RNAs were extracted using RNA extraction kit (Cat #: 45001163, Fisher Scientific) or Trizol. If Trizol was used, RNAs were treated with DNase I (cat #: 18068015, ThermoFisher Scientific) before qPCR. RNA concentrations were measured on a Nanodrop. One-step qPCR were performed using SYBR Green One Step qPCR Kit (Cat #: B25002, Biotool). 10 ng RNA was used in each 10-ul reaction. Triplicate reactions were done for each RNA sample. qPCR was performed on an ABI StepOnePlus using the program: Holding stage step 1, 50° C. 3 min, step 2, 95° C. 5 min; Cycling stage (40 cycles) step 1, 95° C. 10 sec, step 2, 60° C. 30 sec. Primer sequence was as follows: SCD1, 5′-[…]-3′/5′-[…]-3′.
All data was measured in HepG2 cells. % inhibition data of SCD1 expression are provided in Table 1. % inhibition at 10 μM is provided as follows: A≥75%; 75%>B≥50%; 50%>C≥10%. % inhibition at 1 μM is provided as follows: A1≥30%; 30%>B1≥2%. NI means no inhibition in the assay at the indicated concentration of compound tested. NT means not tested.

`CCCc1cc(-n2nc(C)c(-c3ccc(NS(=O)(=O)C(F)(F)F)nc3)c2C)ccn1` [Example 39, N-(5-(3,5-dimethyl-1-(2-propylpyridin-4-yl)-1H-pyrazol-4-yl)pyridin-2-yl)-1,1,1-trifluoromethanesulfonamide] showed an inhibition at 1 µM of 2 to 30% and an inhibition at 10 µM of 10 to 50%.

With `CCCc1cc(-n2nc(C)c(-c3ccc(NC4CCCC4)nc3)c2C)ccn1` [Example 40, N-cyclopentyl-5-(3,5-dimethyl-1-(2-propylpyridin-4-yl)-1H-pyrazol-4-yl)pyridin-2-amine] the inhibition at 1 µM was at least 30% and the inhibition at 10 µM was 50 to 75%.

`CCCn1cc(-n2cc(-c3ccc(NC(C)C)nc3)cn2)ccc1=O` [Example 44, 5-(4-(6-(isopropylamino)pyridin-3-yl)-1H-pyrazol-1-yl)-1-propylpyridin-2(1H)-one] gave an inhibition at 1 µM of 2 to 30% and an inhibition at 10 µM of over 75%.

`CCCn1cc(-n2cc(-c3ccc(NS(C)(=O)=O)cc3)cn2)ccc1=O` [Example 45, N-(4-(1-(6-oxo-1-propyl-1,6-dihydropyridin-3-yl)-1H-pyrazol-4-yl)phenyl)methanesulfonamide] showed an inhibition at 1 µM of at least 30% and an inhibition at 10 µM of over 75%.

In the case of `CCCc1cccc(-n2cc(-c3ccc(NS(C)(=O)=O)cc3)cn2)c1` [Example 47, N-(4-(1-(3-propylphenyl)-1H-pyrazol-4-yl)phenyl)methanesulfonamide], the inhibition at 10 µM is reported as 10 to 50%.

`CCCc1cc(-n2cc(-c3ccc(NC4CCOCC4)nc3)cn2)ccn1` [Example 52, 5-(1-(2-propylpyridin-4-yl)-1H-pyrazol-4-yl)-N-(tetrahydro-2H-pyran-4-yl)pyridin-2-amine] showed an inhibition at 1 µM of at least 30% and an inhibition at 10 µM of over 75%.

In the case of `CCCc1cc(-n2cc(-c3ccc(NCC(C)C)nc3)c(C)n2)ccn1` [Example 53, N-isobutyl-5-(3-methyl-1-(2-propylpyridin-4-yl)-1H-pyrazol-4-yl)pyridin-2-amine], the inhibition at 1 µM is reported as 2 to 30% and the inhibition at 10 µM is reported as over 75%.

With `CCCc1cc(-n2cc(-c3ccc(NCC4CC4)nc3)c(C)n2)ccn1` [Example 54, N-(cyclopropylmethyl)-5-(3-methyl-1-(2-propylpyridin-4-yl)-1H-pyrazol-4-yl)pyridin-2-amine] the inhibition at 10 µM was 50 to 75%.

`CCCc1cc(-n2cc(-c3ccc(NC4CCCC4)nc3)c(C)n2)ccn1` [Example 55, N-cyclopentyl-5-(3-methyl-1-(2-propylpyridin-4-yl)-1H-pyrazol-4-yl)pyridin-2-amine] gave an inhibition at 1 µM of 2 to 30% and an inhibition at 10 µM of over 75%.

Work on `CCCc1cc(-n2cc(-c3ccc(NC(C)C)nc3)c(C)n2)ccn1` [Example 56, N-isopropyl-5-(3-methyl-1-(2-propylpyridin-4-yl)-1H-pyrazol-4-yl)pyridin-2-amine] yielded an inhibition at 1 µM of 2 to 30% and an inhibition at 10 µM of over 75%.

`CCCc1cc(-n2cc(-c3ccc(NC4CCC4)nc3)c(C)n2)ccn1` [Example 57, N-cyclobutyl-5-(3-methyl-1-(2-propylpyridin-4-yl)-1H-pyrazol-4-yl)pyridin-2-amine] was tested, and the inhibition at 1 µM was 2 to 30% and the inhibition at 10 µM was over 75%.
